# Like-named read-outs stand apart in the source and are kept apart here.
# Key:
# [1] = biological target: T1, glucocorticoid receptor (GR) (Homo sapiens, UniProt P04150); experiment: GR-EFC nuclear translocation assay; format: cell-based
# T1 sequence (P04150 1-777): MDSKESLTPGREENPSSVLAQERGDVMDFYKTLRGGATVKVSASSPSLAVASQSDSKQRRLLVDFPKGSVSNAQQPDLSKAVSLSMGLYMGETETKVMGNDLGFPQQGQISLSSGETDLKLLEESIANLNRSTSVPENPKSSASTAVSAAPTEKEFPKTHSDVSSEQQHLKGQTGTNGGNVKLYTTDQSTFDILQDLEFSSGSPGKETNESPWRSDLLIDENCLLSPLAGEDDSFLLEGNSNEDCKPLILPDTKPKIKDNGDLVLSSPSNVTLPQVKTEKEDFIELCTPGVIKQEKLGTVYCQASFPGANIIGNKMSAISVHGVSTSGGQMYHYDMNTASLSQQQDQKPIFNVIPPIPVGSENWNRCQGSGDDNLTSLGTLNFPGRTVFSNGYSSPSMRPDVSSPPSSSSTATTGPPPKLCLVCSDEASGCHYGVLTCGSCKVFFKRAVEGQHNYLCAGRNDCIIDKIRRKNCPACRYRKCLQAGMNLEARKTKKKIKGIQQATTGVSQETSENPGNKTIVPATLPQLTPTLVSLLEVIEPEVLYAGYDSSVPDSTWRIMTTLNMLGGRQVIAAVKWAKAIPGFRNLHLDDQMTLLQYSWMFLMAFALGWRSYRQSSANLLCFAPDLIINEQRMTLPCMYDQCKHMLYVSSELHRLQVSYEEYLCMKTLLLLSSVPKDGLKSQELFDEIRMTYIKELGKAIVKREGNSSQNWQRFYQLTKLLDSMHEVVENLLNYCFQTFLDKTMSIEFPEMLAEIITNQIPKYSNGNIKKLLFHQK
# [2] = biological target: T1, glucocorticoid receptor (GR); conditions: GR-rich cell extract; cited from earlier work
# [3] = read-out: qEC50, qHTS curve fit, class 4 values are fit defaults
Compound,qHTS Curve Class [1],EC50 ([1]; read-out: qEC50),"EC50 [1, 3]",further results
"C[C@]12C[C@H](O)[C@H]3[C@@H](CCC4=CC(=O)CC[C@@]43C)[C@@H]1CC[C@@H]2C(=O)CO [Corticosterone, reference compound]",,,,EC50 [1]: 0.036 µM; IC50/Kd [3H]dex binding assay [2]: 0.048 [39] μM
CC(C)CCC(=O)O.C[C@@]12CCC(=O)C[C@@H]1CC(=O)[C@H]1[C@H]3CCC[C@]3(C)C(=O)C[C@@H]12 [NCGC00017016-01],"4 (inactive, where activity was below 28.6% (3σ for the present assay))",> 9 µM,,
CC(=O)O[C@H]1C[C@@]2(C)[C@@H](C[C@@H](O)[C@H]3[C@@]4(C)CC[C@@H](O)[C@@H](C)[C@@H]4CC[C@@]32C)/C1=C(\CCC=C(C)C)C(=O)[O-].[Na+] [NCGC00017030-01],"4 (inactive, where activity was below 28.6% (3σ for the present assay))",> 9 µM,,
CC(=O)O[C@H]1CC[C@@]2(C)[C@@H](CC[C@@]3(C)[C@H]2C(=O)C=C2[C@H]4C[C@](C)(C(=O)OCCN5CCCCC5)CC[C@]4(C)CC[C@@]23C)C1(C)C [NCGC00017165-01],"4 (inactive, where activity was below 28.6% (3σ for the present assay))",> 9 µM,,
C[C@H]1CC[C@]2(NC1)O[C@@H]1C[C@@H]3[C@@H]4CC=C5C[C@H](O)CC[C@@]5(C)[C@H]4CC[C@@]3(C)[C@H]1[C@@H]2C [NCGC00017170-01],,,> 9 µM,
CC1(C)CC[C@]2(C(=O)O)CC[C@]3(C)C(=CC[C@@H]4[C@@]5(C)CC[C@H](O)C(C)(C)[C@@H]5CC[C@@]43C)[C@@H]2C1 [NCGC00017222-01],"4 (inactive, where activity was below 28.6% (3σ for the present assay))",> 9 µM,,
C[C@H]1[C@H](C)CC[C@@]2(C(=O)O)CC[C@]3(C)C(=CC[C@@H]4[C@@]5(C)CC[C@H](O)C(C)(C)[C@@H]5CC[C@@]43C)[C@@H]12 [NCGC00017223-01],"4 (inactive, where activity was below 28.6% (3σ for the present assay))",> 9 µM,,
CC1(C)[C@@H](O)CC[C@@]2(C)[C@H]1CC[C@]1(C)[C@H]2C(=O)C=C2[C@@H]3C[C@@](C)(C(=O)O)CC[C@]3(C)CC[C@@]21C [NCGC00017244-01],"4 (inactive, where activity was below 28.6% (3σ for the present assay))",> 9 µM,,
CC(=O)O[C@@H]1CC[C@]2(C)[C@H]3CC[C@]4(C)[C@H](C[C@H]5CCCC[C@@]54C(C)=O)[C@@H]3CC(=O)[C@@]2(O)C1 [NCGC00017282-01],,,> 9 µM,
COc1cc2c(cc1OC)-c1c(OC)c(OC)c(CO)c3c1[C@H](C2)N(C)CC3 [NCGC00017307-01],"4 (inactive, where activity was below 28.6% (3σ for the present assay))",> 9 µM,,
C[C@@]12CC[C@H](O)C[C@@H]1CC[C@H]1[C@H]2C[C@@H](O)[C@]2(C)[C@@H](C3=CC(=O)OC3)CC[C@@]12O [NCGC00017309-01],,,> 9 µM,
C[C@H]1[C@H](C)CC[C@@]2(C(=O)O)CC[C@]3(C)C(=CC[C@H]4[C@@]5(C)C[C@@H](O)[C@H](O)[C@@](C)(CO)[C@@H]5CC[C@@]43C)[C@@H]12 [NCGC00017359-01],"4 (inactive, where activity was below 28.6% (3σ for the present assay))",> 9 µM,,
C[C@]12CC[C@H]3c4ccc(OC[C@H]5CO5)cc4CC[C@H]3[C@H]1CC[C@@H]2O [NCGC00017797-01],,,> 9 µM,
C#C[C@]1(O)CC[C@H]2[C@H]3CCC4=Cc5oncc5C[C@]4(C)[C@@H]3CC[C@]21C [NCGC00024732-01],"4 (inactive, where activity was below 28.6% (3σ for the present assay))",> 9 µM,,
CC(=O)O[C@H]1C[C@H]2CC[C@@H]3[C@H]4C[C@@H]([N+]5(C)CCCCC5)[C@@H](OC(C)=O)[C@]4(C)CC[C@@H]3[C@@]2(C)C[C@@H]1[N+]1(C)CCCCC1 [NCGC00024736-01],,,> 9 µM,
C[C@@]12CC[C@@H]3c4ccc(O)cc4C[C@H](CCCCCCCCC[S+]([O-])CCCC(F)(F)C(F)(F)F)[C@H]3[C@@H]1CC[C@@H]2O (some centres unmarked) [NCGC00024964-01],,,> 9 µM,
COc1ccc2c(c1)CC[C@H]1[C@@H]2CC[C@@]2(C)[C@@H](NCCCCCCN3C(=O)C=CC3=O)CC[C@@H]12 [NCGC00025091-01],,,> 9 µM,
CCC[C@@H]1CC2=CC(=O)CC[C@]2(C)[C@@H]2CC[C@@]3(C)[C@H](CC[C@]3(O)CCC(=O)O)[C@H]12 [NCGC00025253-01],,,> 9 µM,
COc1cc2c(cc1O)CCC1C2CC[C@@]2(C)C1CC[C@@H]2O (some centres unmarked) [NCGC00025300-01],,,> 9 µM,

# Reference: article PMC2654417 (Combinatorial chemistry & high throughput screening, 2008)
